Experimental data as given in patent US11172676B2, “Antibacterial resin composition” (TOYO SEIKAN GROUP HOLDINGS, LTD., priority 2011, dated 2021).

Conditions: JIS Z 7260-107

With `O=C1NS(=O)(=O)c2ccccc21.[Ag]` [saccharin silver] the “silver concentrations eluted out in 1-octanol or in water (hydrophilic and oleophilic property)” value was “hydrophilic property and oleophilic property which are both superior to those of silver stearate, phthalazone silver or benzotriazole silver”.
